{"source": "patent US20040048318A1", "about": "“Method for screening anti-proliferative compounds and method for inhibiting tumor growth” (priority 2003, published 2004)", "key": {"[1]": {"test_system": "methionine 14-3-3γ", "test": "IEF-immunoblotting for induction of methionine 14-3-3γ in H1299 cells", "assay_type": "cell-based, human", "experimental": "(§1) H1299, a non-small cell lung carcinoma which is obtained from the American Type Culture Collection (Rockville, Md.), is cultivated in PRMI1640 supplemented with 10% fetal calf serum and glutamine, penicillin, streptomycin, and gentamycin. The H1299 cells are grown to about 70% confluenc and then cultivated with or without 25 μM bengamide. Samples of the cells are taken at 8, 16, 24 and 48 hours. At the end of the culture periods, the sample cells are washed with PBS (phosphate buffered solution, available from Sigma Chemical) and collected by scraping and centrifugation. The cell pellet is dissolved in 4 volumes of Rabilloud buffer. Rabilloud buffer contained 4% non-ionic detergent CHAPS, 7 M urea, 2 M thiourea, 10 mg/ml dithiothreitol and 1% pharmalytes (pH 3-10), which buffer is disclosed in Electrophoresis, 1997 Mar-Apr., 18 (3-4): 307-16, Rabilloud et al., Improvement of the Solubilization of Proteins in Two-dimensional electrophoresis with immobilized pH Gradients. The cell concentration was between 2 and 2.5 E7/ml.\n(§2) Immobilized pH-gradient (IPG) gels (Immobiline®, Amersham Pharmacia Biotech) are re-swollen for at least 4 hours in Rabilloud buffer without pharmalytes. Samples (1 μl of cell extract) are directly loaded at a distance of about 2 cm from the anode to the surface of the gel using a comb. Focusing is carried out at 200 V for 2 hours and at 1000 or 3500 V until a 25000 Vh is reached. The temperature is maintained at 15° C. After focusing, the gel is fixed in 12% TCA-3.5% sulfosalicylic acid for 1 hour and washed in water for 1 hour. The washed gel is blotted by placing the gel on a flat surface and covering with a sheet of PVDF-membrane which was sequentially soaked in Isopropanol, water and a guanidinium chloride solution of […] Tris-HCl at pH 7.5, 4 M guanidinium chloride, 1 mg/ml DTT. The membrane is covered with 4 layers of filter paper sheets which was soaked with the guanidinium chloride solution. A polyethylene film is placed over the filter sheets and a 3 kg weight having a 14 cm by 14 cm flat surface is placed over the polyethylene film to ensure a good contact between the layers. The gel layers are undisturbed to allow transfer for overnight, then the membrane is washed with water and treated with a solution of 0.5% formaldehyde in PBS for 30 minutes. The membrane is incubated with 2% glycine in PBS at pH 7 for 30 minutes.\nThe membrane is then blocked with 0.05% Tween 20-1% skimmed dry milk powder in PBS for 1 hour. Commercially available antibodies against 14-3-3 (Santa Cruz) are applied for 4 hours in blocking buffer. Chemiluminescence detection (ECL-kit, Amersham Pharmacia Biotech) is carried out using the secondary antibodies supplied with the kit."}, "[2]": {"test_system": "methionine 14-3-3γ", "test": "IEF-immunoblotting of white blood cell fraction from treated rats for methionine 14-3-3γ", "assay_type": "in vivo", "details": "3 mg/kg three times for a day, rested 7 days, dosed three times again, blood collected after one day rest", "experimental": "One group of laboratory rats is treated with the bengamide analogue LAF389 of Example 2 three times for a day at the 3 mg/kg dosage, then rested for 7 days. Th rats are again dosed three times the following day with the dosage. They are rested for one day and blood samples are collected. Peripheral blood is collected by a percoll gradient centrifugation protocol. The white blood cell fraction including platelets is recovered and the pellet is lysed in IEF sample buffer. The bio-samples are analyzed with the IEF-immunoblotting analysis. Control bio-samples are obtained from a group of rats that are not treated with the bengamide analogue."}, "[3]": {"test_system": "methionine 14-3-3γ", "test": "IEF-immunoblotting for induction of methionine 14-3-3γ in MDA-MB435 (mammary carcinoma) cells", "assay_type": "cell-based, human", "details": "200 nM LAF389, within 18 hours", "experimental": "[The procedure below names another cell line; the source says it served here with some conditions changed.] as §1\n(§3) Immobilized pH-gradient (IPG) gels (Immobiline®, Amersham Pharmacia Biotech) are re-swollen for at least 4 hours in Rabilloud buffer without pharmalytes. Samples (1 μl of cell extract) are directly loaded at a distance of about 2 cm from the anode to the surface of the gel using a comb. […]"}, "[4]": {"test_system": "methionine 14-3-3γ", "test": "IEF-immunoblotting for induction of methionine 14-3-3γ in U20S (osteosarcoma) cells", "assay_type": "cell-based, human", "details": "for expression of the altered 14-3-3γ isoform: U20S cells treated with the compound (summary statement, no concentration given)", "experimental": "[The procedure below names another cell line; the source says it served here with some conditions changed.] as §1\nas §2, with “A polyethylene film is placed over the filter sheets and a 3 kg weight having a 14 cm by 14 cm flat surface is placed over the polyethylene film to ensure a good contact between the layers. The gel layers are undisturbed to allow transfer for overnight, then the membrane is washed with water and treated with a solution of 0.5% formaldehyde in PBS for 30 minutes. The membrane is incubated with 2% glycine in PBS at pH 7 for 30 minutes.” left out"}, "[5]": {"test_system": "methionine 14-3-3γ", "test": "IEF-immunoblotting for induction of methionine 14-3-3γ in A549 (lung carcinoma) cells", "assay_type": "cell-based, human", "details": "200 nM LAF389, within 18 hours", "experimental": "[The procedure below names another cell line; the source says it served here with some conditions changed.] as §1, §3"}}}
{"compound": "CO[C@@H]1[C@H](OC(=O)NC(=O)CCl)CC[C@]2(CO2)[C@H]1[C@@]1(C)O[C@@H]1CC=C(C)C", "note": "[AGM-1470]", "values": [{"measurement": "induction of methionine 14-3-3γ (IEF-immunoblotting)", "setting": "[1]; AGM-1470 in place of bengamide", "value": "induce methionine 14-3-3γ"}]}
{"compound": "COC(C(=O)NC1CCC(OC(=O)C2CCCCC2)CNC1=O)C(O)C(O)C(O)/C=C/C(C)(C)C", "note": "(stereo not shown) [LAF389]", "values": [{"measurement": "induction and accumulation of methionine 14-3-3γ in white blood cell fraction", "setting": "[2]", "value": "induce and accumulate methionine 14-3-3γ"}, {"measurement": "induction of methionine 14-3-3γ (IEF-immunoblotting)", "setting": "[3]", "value": "induce methionine 14-3-3γ within 18 hours"}, {"measurement": "induction/accumulation of methionine 14-3-3γ (IEF-immunoblotting)", "setting": "[1]; 200 nM LAF389, samples at 8, 16, 24 and 48 hours", "value": "induce and accumulate the protein which is reactive to the 14-3-3γ antibody"}, {"measurement": "induction of methionine 14-3-3γ (IEF-immunoblotting)", "setting": "[1]; 18 hours, LAF389 200 nM, 5-fluorouracil 20 μg/ml, epothilone 500 nM, doxorubicin 1 μg/ml, stauosporin 1 μM", "value": "induced methionine 14-3-3γ"}, {"measurement": "induction of methionine 14-3-3γ (IEF-immunoblotting)", "setting": "[4]; U20S cells, 200 nM LAF389, within 18 hours", "value": "induce methionine 14-3-3γ within 18 hours"}, {"measurement": "induction of methionine 14-3-3γ (IEF-immunoblotting)", "setting": "[5]", "value": "induce methionine 14-3-3γ within 18 hours"}]}
{"compound": "CO[C@@H]1[C@H](OC(=O)/C=C/C=C/C=C/C=C/C(=O)O)CC[C@]2(CO2)[C@H]1[C@@]1(C)O[C@@H]1CC=C(C)C", "note": "[fumagillin]", "values": [{"measurement": "expression of the altered 14-3-3γ isoform", "setting": "[4]", "value": "express the altered 14-3-3γ isoform"}]}
{"compound": "bengamide", "values": [{"measurement": "induction/accumulation of methionine 14-3-3γ (IEF-immunoblotting)", "setting": "[1]; 25 μM bengamide, samples at 8, 16, 24 and 48 hours", "value": "gradually accumulate over the 48 hour culture period the protein that reacts with the 14-3-3γ specific antibody"}, {"measurement": "expression of the altered 14-3-3γ isoform", "setting": "[4]", "value": "express the altered 14-3-3γ isoform"}]}
